Assays:
[1] = tested on: human subjects with a history of nephrolithiasis; experiment: Adverse events and discontinuations in the double-blind and open-label febuxostat study; type: in vivo
Method: (1) febuxostat 40 mg per day, (2) febuxostat 80 mg per day, (3) febuxostat 120 mg per day, or (4) placebo. Subjects completing the double-blind study entered an open-label, long-term study and began treatment with 80 mg febuxostat per day. Febuxostat doses could be titrated over the initial 6 months to 40 mg or 120 mg febuxostat per day based on the subjects' serum urate levels and the occurrence of adverse events.

remnant kidney (RK) rats = experiment: Micropuncture procedure to assess glomerular hemodynamics; type: in vivo, Male Wistar rats; settings: for GFR / Kf / PGC / QA / SNGFR / MAP: end of four weeks; for MAP: under anesthesia
Method: Male Wistar rats (295-340 g) were used to produce rats with remnant kidney (RK) as follows. […] Rats were then assigned to one of four treatment groups: Group 1, RK control rats (n=7); Group 2, RK+febuxostat (Fx) rats (n=8); […] Oxonic acid (OA) (Sigma-Aldrich, St Louis Mo., USA), administered at 750 mg/kg body weight daily by oral gavage, was given starting the day after the 5⁄6 nephrectomy. […] All groups were treated for four weeks. Body weight (beginning just before surgery) and food and water intakes were measured daily. Systolic blood pressure, measured in conscious rats by a tail cuff sphygmomanometer, and plasma uric acid (UA) levels were measured at just before surgery (namely, at baseline) and at the end of the four weeks. Proteinuria was measured at baseline and at the end of two and four weeks. A renal micropuncture procedure along with systemic blood pressure monitoring under pentobarbital anesthesia was performed at the end of four weeks followed by morphologic evaluation of the renal preglomerular microvasculature. Animals were anesthetized with pentobarbital sodium (30 mg/kg, intraperitoneal (ip)) and placed on a thermoregulated table to maintain body temperature at 37° C. Trachea, jugular veins, femoral arteries and the left ureter were catheterized with polyethylene tubing (PE-240, PE-50, and PE-10). The left kidney was exposed, placed in a Lucite holder, sealed with agar, and covered with Ringer's solution. Mean arterial pressure (MAP) was monitored with a pressure transducer (Model p23 db; Gould, San Juan, Puerto Rico) connected to the catheter in the femoral artery and recorded on a polygraph (Grass Instruments, Quincy, Mass., USA). Blood samples were taken periodically and replaced with blood from a donor rat. Rats were maintained under euvolemic conditions by infusion of 10 mL/kg of body weight of isotonic rat plasma during surgery, followed by an infusion of 25%, polyfructosan, at 2.2 ml/h (Inutest; Fresenius Kabi, Linz, Austria). After 60 minutes, five to seven samples of proximal tubular fluid were obtained to determine flow rate and polyfructosan concentrations. Intratubular pressure under free-flow (FF) and stop-flow (SFP) conditions and peritubular capillary pressure (Pc) were measured in other proximal tubules with a servo-null device (Servo Nulling Pressure System; Instrumentation for Physiology and Medicine, San Diego, Calif., USA). Glomerular colloid osmotic pressure was estimated from protein concentrations obtained from blood of the femoral artery (Ca) and surface efferent arterioles (Ce). Polyfructosan was measured in plasma and urine samples by the anthrone-based technique described by Davidson and […] in “Simplification of the anthrone method for the determination of inulin in clearance studies,” J Lab Clin Med. 62:351-356 (1963), the contents of which are herein incorporated by reference. In brief, plasma samples were deproteinated first with trichloroacetic acid. After centrifugation, the supernatant was used for polyfructosan measurement. Polyfructosan concentrations in plasma and urine samples were assessed by the addition of anthrone reagent followed by incubation at 45° C. for 50 minutes and reading in a spectrophotometer set at wavelength of 620 nm. […] Total GFR was calculated using the following formula: GFR=(U×V)/P, where U is the polyfructosan concentration in urine, V is urine flow rate, and P is the polyfructosan concentration in plasma. The volume of fluid collected from individual proximal tubules was estimated from the length of the fluid column in a constant-bore capillary tube of known internal diameter. The concentration of tubular polyfructosan was measured by the microfluorometric method described by Vurek and Pegram in “Fluorometric method for the determination of nanogram quantities of inulin,” Anal Biochem 16:409-419 (1966), the contents of which are herein incorporated by reference. […]

[2] = tested on: normal Sprague-Dawley rats; experiment: Water intake in normal rats (earlier data of the laboratory); type: in vivo; settings: previous data of this laboratory
[3] = number of subjects, N = 18, open-label study
[4] = RK + OA + Fx group (OA-induced hyperuricemia)
[5] = RK rats (RK + Fx or RK + OA group)

Cc1nc(-c2ccc(OCC(C)C)c(C#N)c2)sc1C(=O)O [febuxostat, 2-[3-cyano-4-(2-methylpropoxy)phenyl]-4-methylthiazole-5-carboxylic acid]
Diarrhea (excluding infectious) [1, 3]: 7
Edema NEC [1, 3]: 3
Gastrointestinal and Abdominal Pains (excluding oral and throat) [1, 3]: 3
Joint Related Signs and Symptoms [1, 3]: 6
Lower Respiratory Tract and Lung Infections [1, 3]: 5
Musculoskeletal and Connective Tissue Signs and Symptoms NEC [1, 3]: 5
Non-Site Specific Injuries [1, 3]: 4
Rashes, Eruptions and Exanthems NEC [1, 3]: 3
Total Subjects with ≧1 AE [1, 3]: 17
Upper Respiratory Infections [1, 3]: 12
Urinary Tract Infections [1, 3]: 3
Serum creatinine at Withdrawal (adverse event Increased Creatinine) ([1]; one subject, open-label, Baseline: 1.6 mg/dL): 2.1 mg/dL
Serum creatinine at Follow-up (adverse event Increased Creatinine) ([1]; one subject, Follow-up Day 163, two weeks off study medication): 1.9 mg/dL
GFR (remnant kidney (RK) rats; [4]): 0.44 ± 0.05 mL/min
Kf (remnant kidney (RK) rats; [4]): 0.037 ± 0.004 nL/s · mmHg
PGC (remnant kidney (RK) rats; [4]): 52.0 ± 1.2 mmHg
QA (remnant kidney (RK) rats; [4]): 151 ± 19 nL/min
SNGFR (remnant kidney (RK) rats; [4]): 42.2 ± 4.9 nL/min
MAP (remnant kidney (RK) rats; [4]): 172 ± 8 mmHg
GFR (remnant kidney (RK) rats; [5]): 0.51 ± 0.04 mL/min
Kf (remnant kidney (RK) rats; [5]): 0.035 ± 0.005 nL/s · mmHg
PGC (remnant kidney (RK) rats; [5]): 52.2 ± 1.9 mmHg
QA (remnant kidney (RK) rats; [5]): 142 ± 11 nL/min
SNGFR (remnant kidney (RK) rats; [5]): 36.7 ± 3.1 nL/min
MAP (remnant kidney (RK) rats; [5]): 189 ± 8 mmHg
GFR (in words) (remnant kidney (RK) rats; RK+Fx and RK+OA+Fx rats vs the two untreated groups): increase GFR compared to the two untreated groups
Single-nephron hyperfiltration (in words) (remnant kidney (RK) rats; RK+Fx and RK+OA+Fx rats, normal glomerular pressure and plasma flow maintained): prevented single-nephron hyperfiltration
Afferent arteriolar resistances (in words) (remnant kidney (RK) rats; RK+OA+Fx rats vs untreated cohorts): higher afferent arteriolar resistances compared to their respective untreated cohorts
Effect on water intake [2]: no effect on water intake

Source: patent publication US20130143886A1, “METHODS FOR PRESERVING AND/OR INCREASING RENAL FUNCTION USING XANTHINE OXIDOREDUCTASE INHIBITORS” (priority 2006, published 2013)
